The text below walks through data of US10028935B2, “Stabilized multi-functional antioxidant compounds and methods of use” (XPD Holdings, LLC, priority 2012, dated 2018).

Values after ≈ are worked out from the molar mass of the structure shown.

Data set [1] is described as follows: Solubility in physiologic buffer (PBS, pH 7.4) by nephelometry. As to conditions: aqueous buffer, thermodynamic from solid, phosphate buffered saline, top concentration 500 mg/mL, serial 1:2 dilutions. Format: physicochemical. The method, then:
(§1) The solubility of Compound 45 and carnosine in physiologic buffer (phosphate buffered saline, pH 7.4; PBS) were determined using a BMG Labtech NEPHELOstar nephelometer (Offenburg, Germany) with Galaxy analytical software, version 4.32R2. Stock solutions of each compound were prepared initially in dimethyl sulfoxide (DMSO); Compound 45 was soluble at a concentration of 50 mM in DMSO, while carnosine was not. Subsequently, dilution series of both compounds were prepared directly in PBS (pH 7.4) for evaluation of solubility using nephlometry, with a top concentration of 500 mg/mL for each compound and serial 1:2 dilutions. A positive control compound was included to qualitatively illustrate concentration-solubility relationships using heat maps. Compound 45 was soluble in physiologic buffer at a concentration of 500 mg/mL, while carnosine was soluble only at concentrations of 250 mg/mL.

Data set [2] in a line: Hydrolysis in human whole blood (disappearance of Compound 45, appearance of NACA and carnosine). The data set is classed as in vitro ADME. As to conditions: 37° C. The method, then: To determine hydrolysis of Compound 45 and appearance of NACA and carnosine in blood, samples of human whole blood from healthy donors anti-coagulated with sodium heparin were thermally equilibrated to, and maintained at 37° C. in a water bath. Compound 45 was then spiked from a single freshly prepared stock solution into blood aliquots to create separate samples of varying Compound 45 starting concentrations (135 μM, 13.5 μM, 10.9 μM [5 μg/mL], and 2.2 μM [1 μg/mL]). Immediately after spiking, tubes were mixed by very gently rocking tubes manually for 5 minutes to ensure homogeneity and remained in the 37° C. water bath until all time points were collected. […] Plasma samples were processed for quantitation of the disappearance (hydrolysis) of Compound 45 and the appearance of NACA or carnosine, as described below. […]
Samples in 96-well plates were analyzed on a Waters Acquity UPLC™ liquid chromatograph interfaced with a Thermo Scientific TSQ Vantage triple quadrupole mass spectrometer with electrospray ionization in the positive ion mode. […]
Compound 45, Carnosine and the NACA-thio-ether derivative product eluted at approximately 1.3 minutes. Compound 45 was detected by selected reaction monitoring of the mass-to-charge (m/z) 371 to 110 transition. Carnosine was detected by selected reaction monitoring of the m/z 227 to 110 transition. […]

Data set [3] can be described thus: Storage stability by reversed-phase HPLC quantitation of degradation products (impurities). The data set is classed as physicochemical. As to conditions: storage for 1 or 2 months at 5° C., 25° C./60% RH and 40° C./75% RH; FIGS. 1-3. Here is the method: The stability of Compound 45 and N-acetylcysteine amide (NACA) were determined using reversed-phase HPLC quantitation of the appearance of degradation products (impurities) after storage of the compounds for 1 or 2 months at 5° C., 25° C./60% relative humidity (RH), and 40° C./75% RH.
The chromatographic system used was an Agilent 1100 HPLC comprised of a degasser (model G1322A), pump (model G1311A), autosampler (model G1329A), column compartment (model G1316A), and a diode array detector (model G1315A). Agilent Chemstation software Rev. B.03.02 [341] was used to acquire and analyze all chromatographic data. […] Assay, identity, and purity of Compound 45 and NACA, and quantitation of impurities arising over time, was accomplished by a reversed-phase isocratic method using a Phenomenex Synergi Polar-RP (250×4.6 mm, […]) column at 15° C., 0.2% perchloric acid (PCA) in water and acetonitrile as mobile phase, UV detection at 210 nm, and a standard run time of 20 minutes. Standard solutions of Compound 45 and NACA were prepared in 0.2% perchloric acid to generate standard curves for quantitation of Compound 45 and NACA. Replicate samples of each analyte were collected at study initiation (baseline), after 1 month of storage under the various conditions and after 2 months of storage for quantitation of parent and impurities. […]

Data set [4] can be described thus: Solubility of stock solutions in dimethyl sulfoxide (DMSO). The data set is classed as physicochemical. To be noted: organic solvent or mixture, stock solution in dimethyl sulfoxide. Here is the method: as §1

Take `CC(=O)N[C@@H](CSC(=O)[C@H](Cc1cnc[nH]1)NC(=O)CCN)C(N)=O` [Compound 45, (S)-S((R)-2-acetamido-3-amino-3-oxopropyl) 2-(3-aminopropanamido)-3-(1H-imidazol-5-yl)propanethioate]: the results for the solubility in data set [1] and in data set [4] were no less than 500 mg/mL and no less than 50 mM, respectively. In data set [2], the “metabolism of thioester linkage in blood” value is listed as “rapidly metabolized in blood”. In data set [3], the “extent of degradation as measured by the percent change (increase) from baseline in impurities” value was “less than the increase in impurities for NACA”.

Regarding `NCCC(=O)N[C@@H](Cc1cnc[nH]1)C(=O)O` [carnosine, reference compound], the solubility in data set [1] was 250 mg/mL (≈ 1110 mM); in data set [4] it was less than 50 mM.

The term solubility denotes how much of the substance goes into solution per volume.
